System: mouse models with androgenic hair loss
Assay: Therapeutic effect of microneedle patches in mouse models with androgenic hair loss built by topical testosterone
Assay type: in vivo
Conditions: testosterone-induced androgenic hair loss mice; patches used 15 days, replaced every three days; Minoxidil solution applied daily for 13 days
Protocol: The therapeutic effect of the anti-hair loss and hair growth integrated core-shell microneedle patch is tested, the mouse models with androgenic hair loss are built by topical administration of testosterone solution every day for 28 days, five groups of mouse models with androgenic hair loss are used to test the effect of the microneedle patch, one of the groups is a model group to which only testosterone solution is applied, the blank microneedle patch, the nano-enzyme microneedle patch (prepared in Comparative Example 1) and the core-shell microneedle patch (prepared in Embodiment 1) are used on the other three groups of mouse models with androgenic hair loss respectively, the patches are used for 15 days and replaced every three days, a Minoxidil solution is used for the last group and applied every day for 13 consecutive days. The measurement results are shown in Table 1, and the therapeutic effect of the anti-hair loss and hair growth integrated core-shell microneedle patch is judged by scoring the hair diameter, percentage of Ki67 positive cells and hair cycle.

SMILES: Nc1cc(N2CCCCC2)nc(N)[n+]1[O-] [Minoxidil]
- Hair cycle score: 22
- Hair diameter: 11 μm
- Ki67 positive cells: 20%
